Measured values: the NIST ThermoML archive (doi:10.1021/je400423u)
Numbers after ± are expanded uncertainties.

Experiment: xn = mol fraction of the nth substance listed
Settings: 101 kPa, Liquid; for viscosity: Falling or rolling sphere viscometry; for mass density: Vibrating tube method

CC(C)(C)O [2-methylpropan-2-ol] + CCC(C)O
Settings | mass density [kg/m3] | viscosity [mPa·s]
308.15 K, x2 = 0 | 770.36 ± 0.13 | 2.589 ± 0.02
308.15 K, x2 = 0.1002 | 772.862 ± 0.13 | 2.511 ± 0.02
308.15 K, x2 = 0.2001 | 775.563 ± 0.13 | 2.462 ± 0.019
308.15 K, x2 = 0.3008 | 778.356 ± 0.13 | 2.414 ± 0.019
308.15 K, x2 = 0.3999 | 781.092 ± 0.13 | 2.368 ± 0.019
308.15 K, x2 = 0.5005 | 783.761 ± 0.13 | 2.322 ± 0.018
308.15 K, x2 = 0.6004 | 786.229 ± 0.13 | 2.278 ± 0.018
308.15 K, x2 = 0.6999 | 788.492 ± 0.14 | 2.237 ± 0.018
308.15 K, x2 = 0.8009 | 790.567 ± 0.14 | 2.199 ± 0.018
308.15 K, x2 = 0.8998 | 792.397 ± 0.14 | 2.168 ± 0.018
313.15 K, x2 = 0 | 765.07 ± 0.13 | 2.089 ± 0.016
313.15 K, x2 = 0.1002 | 767.728 ± 0.13 | 2.032 ± 0.016
313.15 K, x2 = 0.2001 | 770.539 ± 0.13 | 2.001 ± 0.016
313.15 K, x2 = 0.3008 | 773.423 ± 0.13 | 1.97 ± 0.016
313.15 K, x2 = 0.3999 | 776.226 ± 0.13 | 1.941 ± 0.015
313.15 K, x2 = 0.5005 | 778.999 ± 0.13 | 1.912 ± 0.015
313.15 K, x2 = 0.6004 | 781.558 ± 0.13 | 1.886 ± 0.015
313.15 K, x2 = 0.6999 | 783.915 ± 0.14 | 1.863 ± 0.015
313.15 K, x2 = 0.8009 | 786.091 ± 0.14 | 1.843 ± 0.015
313.15 K, x2 = 0.8998 | 787.978 ± 0.14 | 1.828 ± 0.015
318.15 K, x2 = 0 | 759.67 ± 0.13 | 1.69 ± 0.013
318.15 K, x2 = 0.1002 | 762.547 ± 0.13 | 1.671 ± 0.013
318.15 K, x2 = 0.2001 | 765.501 ± 0.13 | 1.651 ± 0.013
318.15 K, x2 = 0.3008 | 768.478 ± 0.13 | 1.632 ± 0.013
318.15 K, x2 = 0.3999 | 771.356 ± 0.13 | 1.613 ± 0.013
318.15 K, x2 = 0.5005 | 774.194 ± 0.14 | 1.596 ± 0.013
318.15 K, x2 = 0.6004 | 776.85 ± 0.14 | 1.581 ± 0.013
318.15 K, x2 = 0.6999 | 779.306 ± 0.14 | 1.569 ± 0.013
318.15 K, x2 = 0.8009 | 781.558 ± 0.14 | 1.56 ± 0.013
318.15 K, x2 = 0.8998 | 783.501 ± 0.14 | 1.554 ± 0.013
323.15 K, x2 = 0 | 754.19 ± 0.13 | 1.409 ± 0.011
323.15 K, x2 = 0.1002 | 757.329 ± 0.13 | 1.393 ± 0.011
323.15 K, x2 = 0.2001 | 760.468 ± 0.13 | 1.382 ± 0.011
323.15 K, x2 = 0.3008 | 763.574 ± 0.13 | 1.371 ± 0.011
323.15 K, x2 = 0.3999 | 766.546 ± 0.14 | 1.36 ± 0.011
323.15 K, x2 = 0.5005 | 769.452 ± 0.14 | 1.351 ± 0.011
323.15 K, x2 = 0.6004 | 772.176 ± 0.14 | 1.343 ± 0.011
323.15 K, x2 = 0.6999 | 774.689 ± 0.14 | 1.338 ± 0.011
323.15 K, x2 = 0.8009 | 776.998 ± 0.14 | 1.334 ± 0.011
323.15 K, x2 = 0.8998 | 778.948 ± 0.14 | 1.333 ± 0.011
328.15 K, x2 = 0 | 748.62 ± 0.13 | –
328.15 K, x2 = 0.1002 | 752.053 ± 0.13 | 1.178 ± 0.0094
328.15 K, x2 = 0.2001 | 755.328 ± 0.14 | 1.171 ± 0.0094
328.15 K, x2 = 0.3008 | 758.481 ± 0.14 | 1.164 ± 0.0094
328.15 K, x2 = 0.3999 | 761.481 ± 0.14 | 1.158 ± 0.0094
328.15 K, x2 = 0.5005 | 764.427 ± 0.14 | 1.154 ± 0.0094
328.15 K, x2 = 0.6004 | 767.214 ± 0.14 | 1.151 ± 0.0094
328.15 K, x2 = 0.6999 | 769.823 ± 0.14 | 1.15 ± 0.0094
328.15 K, x2 = 0.8009 | 772.229 ± 0.14 | 1.15 ± 0.0095
328.15 K, x2 = 0.8998 | 774.252 ± 0.15 | 1.153 ± 0.0095
333.15 K, x2 = 0 | 742.95 ± 0.14 | –
333.15 K, x2 = 0.1002 | 746.671 ± 0.14 | 1.007 ± 0.0083
333.15 K, x2 = 0.2001 | 750.068 ± 0.14 | 1.003 ± 0.0083
333.15 K, x2 = 0.3008 | 753.262 ± 0.14 | 0.9994 ± 0.0083
333.15 K, x2 = 0.3999 | 756.271 ± 0.14 | 0.9962 ± 0.0083
333.15 K, x2 = 0.5005 | 759.241 ± 0.14 | 0.9947 ± 0.0083
333.15 K, x2 = 0.6004 | 762.081 ± 0.14 | 0.9943 ± 0.0084
333.15 K, x2 = 0.6999 | 764.795 ± 0.14 | 0.996 ± 0.0084
333.15 K, x2 = 0.8009 | 767.312 ± 0.14 | 0.9994 ± 0.0085
333.15 K, x2 = 0.8998 | 769.418 ± 0.15 | 1.004 ± 0.0085
338.15 K, x2 = 0 | 737.19 ± 0.14 | –
338.15 K, x2 = 0.1002 | 741.149 ± 0.14 | 0.8692 ± 0.0075
338.15 K, x2 = 0.2001 | 744.63 ± 0.14 | 0.8679 ± 0.0075
338.15 K, x2 = 0.3008 | 747.865 ± 0.14 | 0.8665 ± 0.0075
338.15 K, x2 = 0.3999 | 750.893 ± 0.14 | 0.8654 ± 0.0075
338.15 K, x2 = 0.5005 | 753.913 ± 0.14 | 0.8659 ± 0.0075
338.15 K, x2 = 0.6004 | 756.832 ± 0.14 | 0.8678 ± 0.0076
338.15 K, x2 = 0.6999 | 759.643 ± 0.14 | 0.8713 ± 0.0076
338.15 K, x2 = 0.8009 | 762.272 ± 0.15 | 0.876 ± 0.0077
338.15 K, x2 = 0.8998 | 764.451 ± 0.15 | 0.8813 ± 0.0077
343.15 K, x2 = 0 | 731.31 ± 0.14 | –
343.15 K, x2 = 0.1002 | 735.411 ± 0.14 | 0.7586 ± 0.0068
343.15 K, x2 = 0.2001 | 738.998 ± 0.14 | 0.7589 ± 0.0068
343.15 K, x2 = 0.3008 | 742.315 ± 0.14 | 0.7593 ± 0.0068
343.15 K, x2 = 0.3999 | 745.431 ± 0.14 | 0.7601 ± 0.0069
343.15 K, x2 = 0.5005 | 748.529 ± 0.14 | 0.7616 ± 0.0069
343.15 K, x2 = 0.6004 | 751.539 ± 0.14 | 0.7648 ± 0.0069
343.15 K, x2 = 0.6999 | 754.435 ± 0.15 | 0.769 ± 0.007
343.15 K, x2 = 0.8009 | 757.148 ± 0.15 | 0.7743 ± 0.0071
343.15 K, x2 = 0.8998 | 759.383 ± 0.15 | 0.7798 ± 0.0071
